Laboratory results published in US20230085307A1, “PYRIDAZINONE COMPOUND AND HERBICIDE” (NISSAN CHEMICAL CORPORATION, priority 2019, published 2023).

Key:
windgrass [1] = assay: Test Example 4: herbicidal effect by soil treatment (Table 19, symbol L); assay type: in vivo, windgrass (Apera spica-venti); conditions: amount of applied herbicide 320 g/ha
Procedure, shortened: (§1)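 Three weeks of greenhouse growth at 25° C. to 30° C. followed a uniform surface spray of water-diluted emulsion at a predetermined herbicide amount. Seeds had been sown beforehand under about 1.5 cm of sterilized diluvial soil. Grading followed criteria set out in an earlier test.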

barnyard grass [2] = assay: Test Example 5: herbicidal effect by foliage application, plastic box (Table 20, symbol H); assay type: in vivo, barnyard grass (Echinochloa crus-galli); conditions: 320 g/ha, foliage application after 14-day growth, evaluated three weeks after application
Procedure, shortened: (§2)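 Plants sown in sterilized diluvial soil and grown 14 days in a greenhouse at 25° C to 30° C, then sprayed on the foliage with the compound's emulsion diluted in water to a predetermined herbicide amount. Injury to weeds and crops scored three weeks after application on a visual rating scale.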

blackgrass [3] = assay: Test Example 5: herbicidal effect by foliage application, plastic box (Table 20, symbol J); assay type: in vivo, blackgrass (Alopecurus myosuroides); conditions: 320 g/ha, foliage application after 14-day growth, evaluated three weeks after application
Procedure, shortened: as §2

chickweed [4] = assay: Test Example 5: herbicidal effect by foliage application, plastic box (Table 20, symbol P); assay type: in vivo, common chickweed (Stellaria media); conditions: 320 g/ha, foliage application after 14-day growth, evaluated three weeks after application
Procedure, shortened: as §2

oval-leafed pondweed = assay: Test Example 1: herbicidal activity, application before weed generation under submerged conditions (Table 16, symbol C); assay type: in vivo, oval-leafed pondweed (Monochoria vaginalis); conditions: amount of applied herbicide 320 g/ha
Procedure, shortened: (§3)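 Alluvial soil was flooded to 4 cm depth, weed seeds were sown mixed and 2.5-leaf rice seedlings were transplanted. On sowing day, the compound's emulsion, diluted in water to a set dose, was applied to the water surface. Plants grew at 25–30 °C and were scored 0–5 after three weeks.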

Italian ryegrass [5] = assay: Test Example 5: herbicidal effect by foliage application, plastic box (Table 20, symbol K); assay type: in vivo, Italian ryegrass (Lolium multiflorum); conditions: 320 g/ha, foliage application after 14-day growth, evaluated three weeks after application
Procedure, shortened: as §2

barnyard grass [6] = assay: Test Example 3: herbicidal effect by foliage application, Wagner pot (Table 18, symbol H); assay type: in vivo, barnyard grass (Echinochloa crus-galli); conditions: 320 g/ha
Procedure, shortened: (§4)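 Plants were sown in alluvial soil held under 0.1–0.5 cm standing water and grown 14 days in a greenhouse at 25–30 °C. An emulsifiable formulation, water-diluted to the set dose, was then sprayed onto the foliage, and effects were scored three weeks later using previously defined criteria.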

redroot pigweed [7] = assay: Test Example 5: herbicidal effect by foliage application, plastic box (Table 20, symbol N); assay type: in vivo, redroot pigweed (Amaranthus retroflexus); conditions: 320 g/ha, foliage application after 14-day growth, evaluated three weeks after application
Procedure, shortened: as §2

green foxtail [8] = assay: Test Example 5: herbicidal effect by foliage application, plastic box (Table 20, symbol G); assay type: in vivo, green foxtail (Setaria viridis); conditions: 320 g/ha, foliage application after 14-day growth, evaluated three weeks after application
Procedure, shortened: as §2

green foxtail [9] = assay: Test Example 4: herbicidal effect by soil treatment (Table 19, symbol G); assay type: in vivo, green foxtail (Setaria viridis); conditions: amount of applied herbicide 320 g/ha
Procedure, shortened: as §1

redroot pigweed [10] = assay: Test Example 4: herbicidal effect by soil treatment (Table 19, symbol N); assay type: in vivo, redroot pigweed (Amaranthus retroflexus); conditions: amount of applied herbicide 320 g/ha
Procedure, shortened: as §1

persian speedwell [11] = assay: Test Example 4: herbicidal effect by soil treatment (Table 19, symbol R); assay type: in vivo, Persian speedwell (Veronica persica); conditions: amount of applied herbicide 320 g/ha
Procedure, shortened: as §1

southern crabgrass [12] = assay: Test Example 5: herbicidal effect by foliage application, plastic box (Table 20, symbol F); assay type: in vivo, southern crabgrass (Digitaria ciliaris); conditions: 320 g/ha, foliage application after 14-day growth, evaluated three weeks after application
Procedure, shortened: as §2

velvetleaf [13] = assay: Test Example 5: herbicidal effect by foliage application, plastic box (Table 20, symbol M); assay type: in vivo, velvetleaf (Abutilon theophrasti); conditions: 320 g/ha, foliage application after 14-day growth, evaluated three weeks after application
Procedure, shortened: as §2

southern crabgrass [14] = assay: Test Example 4: herbicidal effect by soil treatment (Table 19, symbol F); assay type: in vivo, southern crabgrass (Digitaria ciliaris); conditions: amount of applied herbicide 320 g/ha
Procedure, shortened: as §1

Italian ryegrass [15] = assay: Test Example 4: herbicidal effect by soil treatment (Table 19, symbol K); assay type: in vivo, Italian ryegrass (Lolium multiflorum); conditions: amount of applied herbicide 320 g/ha
Procedure, shortened: as §1

barnyard grass [16] = assay: Test Example 4: herbicidal effect by soil treatment (Table 19, symbol H); assay type: in vivo, barnyard grass (Echinochloa crus-galli); conditions: amount of applied herbicide 320 g/ha
Procedure, shortened: as §1

Chinese sprangletop = assay: Test Example 3: herbicidal effect by foliage application, Wagner pot (Table 18, symbol D); assay type: in vivo, chinese sprangletop (Leptochloa chinensis); conditions: 320 g/ha
Procedure, shortened: as §4

late watergrass = assay: Test Example 1: herbicidal activity, application before weed generation under submerged conditions (Table 16, symbol A); assay type: in vivo, late watergrass (Echinochloa oryzicola); conditions: amount of applied herbicide 320 g/ha
Procedure, shortened: as §3

Japanese bulrush = assay: Test Example 1: herbicidal activity, application before weed generation under submerged conditions (Table 16, symbol B); assay type: in vivo, Japanese bulrush (Schoenoplectus juncoides); conditions: amount of applied herbicide 320 g/ha
Procedure, shortened: as §3

false cleavers = assay: Test Example 4: herbicidal effect by soil treatment (Table 19, symbol Q); assay type: in vivo, false cleavers (Galium spurium); conditions: amount of applied herbicide 320 g/ha
Procedure, shortened: as §1

blackgrass [17] = assay: Test Example 4: herbicidal effect by soil treatment (Table 19, symbol J); assay type: in vivo, blackgrass (Alopecurus myosuroides); conditions: amount of applied herbicide 320 g/ha
Procedure, shortened: as §1

lambsquarters [18] = assay: Test Example 5: herbicidal effect by foliage application, plastic box (Table 20, symbol O); assay type: in vivo, lambsquarters (Chenopodium album); conditions: 320 g/ha, foliage application after 14-day growth, evaluated three weeks after application
Procedure, shortened: as §2

wild oat [19] = assay: Test Example 4: herbicidal effect by soil treatment (Table 19, symbol I); assay type: in vivo, wild oat (Avena fatua); conditions: amount of applied herbicide 320 g/ha
Procedure, shortened: as §1

velvetleaf [20] = assay: Test Example 4: herbicidal effect by soil treatment (Table 19, symbol M); assay type: in vivo, velvetleaf (Abutilon theophrasti); conditions: amount of applied herbicide 320 g/ha
Procedure, shortened: as §1

chickweed [21] = assay: Test Example 4: herbicidal effect by soil treatment (Table 19, symbol P); assay type: in vivo, common chickweed (Stellaria media); conditions: amount of applied herbicide 320 g/ha
Procedure, shortened: as §1

rice flat sedge = assay: Test Example 3: herbicidal effect by foliage application, Wagner pot (Table 18, symbol E); assay type: in vivo, rice flat sedge (Cyperus iria); conditions: 320 g/ha
Procedure, shortened: as §4

windgrass [22] = assay: Test Example 5: herbicidal effect by foliage application, plastic box (Table 20, symbol L); assay type: in vivo, windgrass (Apera spica-venti); conditions: 320 g/ha, foliage application after 14-day growth, evaluated three weeks after application
Procedure, shortened: as §2

persian speedwell [23] = assay: Test Example 5: herbicidal effect by foliage application, plastic box (Table 20, symbol R); assay type: in vivo, Persian speedwell (Veronica persica); conditions: 320 g/ha, foliage application after 14-day growth, evaluated three weeks after application
Procedure, shortened: as §2

lambsquarters [24] = assay: Test Example 4: herbicidal effect by soil treatment (Table 19, symbol O); assay type: in vivo, lambsquarters (Chenopodium album); conditions: amount of applied herbicide 320 g/ha
Procedure, shortened: as §1

wild oat [25] = assay: Test Example 5: herbicidal effect by foliage application, plastic box (Table 20, symbol I); assay type: in vivo, wild oat (Avena fatua); conditions: 320 g/ha, foliage application after 14-day growth, evaluated three weeks after application
Procedure, shortened: as §2

**Q.** What does the source list for `CSc1ccc(-c2sc3c(F)cccc3c2-c2c(O)c(C)nn(C)c2=O)cc1` [4-050]?
**A.** Herbicidal effect by soil treatment, L: windgrass (windgrass [1]): 0 (Herbicidal rate of 5% or less (almost no effect)); herbicidal effect on H: barnyard grass (evaluation grade 0-5) (barnyard grass [2]): 5 (Herbicidal rate of 90% or more (almost completely withered)); herbicidal effect on J: blackgrass (evaluation grade 0-5) (blackgrass [3]): 3 (Herbicidal rate of 40% or more and less than 70%); herbicidal effect on P: chickweed (evaluation grade 0-5) (chickweed [4]): 5 (Herbicidal rate of 90% or more (almost completely withered)); Herbicidal effect, C: oval-leafed pondweed (oval-leafed pondweed): 0 (Herbicidal rate of 5% or less (almost no effect)); herbicidal effect on K: Italian ryegrass (evaluation grade 0-5) (Italian ryegrass [5]): 4 (Herbicidal rate of 70% or more and less than 90%); herbicidal effect on barnyard grass (H) (barnyard grass [6]): 5 (Herbicidal rate of 90% or more (almost completely withered)); herbicidal effect on N: redroot pigweed (evaluation grade 0-5) (redroot pigweed [7]): 5 (Herbicidal rate of 90% or more (almost completely withered)); herbicidal effect on G: green foxtail (evaluation grade 0-5) (green foxtail [8]): 5 (Herbicidal rate of 90% or more (almost completely withered)); Herbicidal effect by soil treatment, G: green foxtail (green foxtail [9]): 3 (Herbicidal rate of 40% or more and less than 70%); Herbicidal effect by soil treatment, N: redroot pigweed (redroot pigweed [10]): 4 (Herbicidal rate of 70% or more and less than 90%); Herbicidal effect by soil treatment, R: persian speedwell (persian speedwell [11]): 4 (Herbicidal rate of 70% or more and less than 90%); herbicidal effect on F: southern crabgrass (evaluation grade 0-5) (southern crabgrass [12]): 2 (Herbicidal rate of 20% or more and less than 40%); herbicidal effect on M: velvetleaf (evaluation grade 0-5) (velvetleaf [13]): 5 (Herbicidal rate of 90% or more (almost completely withered)); Herbicidal effect by soil treatment, F: southern crabgrass (southern crabgrass [14]): 2 (Herbicidal rate of 20% or more and less than 40%); Herbicidal effect by soil treatment, K: Italian ryegrass (Italian ryegrass [15]): 1 (Herbicidal rate of 5% or more and less than 20%); Herbicidal effect by soil treatment, H: barnyard grass (barnyard grass [16]): 2 (Herbicidal rate of 20% or more and less than 40%); herbicidal effect on Chinese sprangletop (D) (Chinese sprangletop): 4 (Herbicidal rate of 70% or more and less than 90%); Herbicidal effect, A: late watergrass (late watergrass): 3 (Herbicidal rate of 40% or more and less than 70%); Herbicidal effect, B: Japanese bulrush (Japanese bulrush): 0 (Herbicidal rate of 5% or less (almost no effect)); Herbicidal effect by soil treatment, Q: false cleavers (false cleavers): 0 (Herbicidal rate of 5% or less (almost no effect)); Herbicidal effect by soil treatment, J: blackgrass (blackgrass [17]): 0 (Herbicidal rate of 5% or less (almost no effect)); herbicidal effect on O: lambsquarters (evaluation grade 0-5) (lambsquarters [18]): 5 (Herbicidal rate of 90% or more (almost completely withered)); Herbicidal effect by soil treatment, I: wild oat (wild oat [19]): 0 (Herbicidal rate of 5% or less (almost no effect)); Herbicidal effect by soil treatment, M: velvetleaf (velvetleaf [20]): 3 (Herbicidal rate of 40% or more and less than 70%); Herbicidal effect by soil treatment, P: chickweed (chickweed [21]): 4 (Herbicidal rate of 70% or more and less than 90%); herbicidal effect on rice flat sedge (E) (rice flat sedge): 4 (Herbicidal rate of 70% or more and less than 90%); herbicidal effect on L: windgrass (evaluation grade 0-5) (windgrass [22]): 5 (Herbicidal rate of 90% or more (almost completely withered)); herbicidal effect on R: persian speedwell (evaluation grade 0-5) (persian speedwell [23]): 5 (Herbicidal rate of 90% or more (almost completely withered)); Herbicidal effect by soil treatment, O: lambsquarters (lambsquarters [24]): 3 (Herbicidal rate of 40% or more and less than 70%); herbicidal effect on I: wild oat (evaluation grade 0-5) (wild oat [25]): 1 (Herbicidal rate of 5% or more and less than 20%)
